Measurements reported in the supplement of paper PMC10627819.

How the values were obtained:
S. aureus DSM 20231 [1] = test: fitness (endpoint OD595 vs no drug) (fraction); higher = more growth
Method in brief: (§1)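 Cultures at OD595 0.01 were dispensed into 384-well plates in TSB, LB Lennox or CY and incubated at 37 °C. Every 30 min for 14 h, OD595 was read and corrected by the first reading. Fitness is the optical density at entry into stationary phase relative to the robust mean of no-drug control wells, capped at 1.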

S. aureus Newman [2] = test: as above
Method in brief: as §1

B. subtilis 168 = test: Bliss interaction score (quartile over a dose matrix) (fitness difference); higher = more antagonism (negative = synergy)
Method in brief: (§2)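 Values were capped at 1 after dividing OD595 at stationary-phase entry by the plate's robust no-drug mean. This ratio is fitness, and single-drug fitness was inferred from the combination data. The Bliss score is observed minus product-expected fitness, given as quartiles over technical, biological and donor/recipient replicates.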

S. aureus DSM 20231 [3] = test: as above
Method in brief: as §2

S. aureus Newman [4] = test: as above
Method in brief: as §2

S. pneumoniae D39V [5] = test: as above
Method in brief: as §2

S. pneumoniae D39V [6] = test: fitness (endpoint OD595 vs no drug) (fraction); higher = more growth
Method in brief: as §1
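For Bliss interaction score (quartile over a dose matrix) in this document: first quartile when negative (synergy) and third quartile when positive (antagonism).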

CCCCCCCCCC(=O)N[C@H]1[C@H](Oc2c3cc4cc2Oc2ccc(cc2Cl)[C@@H](O[C@@H]2O[C@H](CO)[C@@H](O)[C@H](O)[C@H]2NC(C)=O)[C@@H]2NC(=O)[C@H](NC(=O)[C@@H]4NC(=O)[C@H]4NC(=O)[C@@H](Cc5ccc(c(Cl)c5)O3)NC(=O)[C@H](N)c3ccc(O)c(c3)Oc3cc(O)cc4c3)c3ccc(O)c(c3)-c3c(O[C@H]4O[C@H](CO)[C@@H](O)[C@H](O)[C@@H]4O)cc(O)cc3[C@@H](C(=O)O)NC2=O)O[C@H](CO)[C@@H](O)[C@@H]1O [Teicoplanin] + CC1=C\[C@@H](O)CC(=O)Cc2nc(co2)C(=O)N2CCC=C2C(=O)O[C@H](C(C)C)[C@H](C)/C=C/C(=O)NC\C=C\1 [Virginiamycin M1]
fitness, S. aureus DSM 20231 [1], main component drawn
Details | first compound 0.1562 µg/mL | first compound 0.3125 µg/mL | first compound 0.625 µg/mL
partner 0.0625 µg/mL | 0.996 | ≥ 1 | ≥ 1
partner 0.125 µg/mL | ≥ 1 | ≥ 1 | ≥ 1
partner 0.25 µg/mL | ≥ 1 | ≥ 1 | ≥ 1

fitness, one replicate, main component drawn
Details | first compound 0.1562 µg/mL | first compound 0.3125 µg/mL | first compound 0.62 µg/mL | first compound 0.625 µg/mL | first compound 1.24 µg/mL | first compound 2.48 µg/mL
S. aureus DSM 20231 [1], partner 0.5 µg/mL | ≥ 1 | ≥ 1 | – | ≥ 1 | – | –
S. aureus DSM 20231 [1], partner 1 µg/mL | 0.864 | 0.861 | – | ≥ 1 | – | –
S. aureus Newman [2], partner 0.0625 µg/mL | ≥ 1 | 0.97 | 0.773 | 0.843 | 0.78 | 0.473
S. aureus Newman [2], partner 0.125 µg/mL | ≥ 1 | ≥ 1 | 0.784 | 0.774 | 0.764 | 0.529
S. aureus Newman [2], partner 0.25 µg/mL | ≥ 1 | ≥ 1 | 0.831 | 0.839 | 0.766 | 0.486
S. aureus Newman [2], partner 0.5 µg/mL | 0.945 | 0.989 | – | ≥ 1 | – | –
S. aureus Newman [2], partner 1 µg/mL | ≥ 1 | 0.971 | – | ≥ 1 | – | –
S. aureus Newman [2], partner 2 µg/mL | 0.876 | 0.951 | – | ≥ 1 | – | –

main component drawn
Details | Bliss interaction score
B. subtilis 168 | 0.117
S. aureus DSM 20231 [3] | 0.101
S. aureus Newman [4] | 0.0746
S. pneumoniae D39V [5] | 0.262

CCCCCCCCCC(=O)N[C@H]1[C@H](Oc2c3cc4cc2Oc2ccc(cc2Cl)[C@@H](O[C@@H]2O[C@H](CO)[C@@H](O)[C@H](O)[C@H]2NC(C)=O)[C@@H]2NC(=O)[C@H](NC(=O)[C@@H]4NC(=O)[C@H]4NC(=O)[C@@H](Cc5ccc(c(Cl)c5)O3)NC(=O)[C@H](N)c3ccc(O)c(c3)Oc3cc(O)cc4c3)c3ccc(O)c(c3)-c3c(O[C@H]4O[C@H](CO)[C@@H](O)[C@H](O)[C@@H]4O)cc(O)cc3[C@@H](C(=O)O)NC2=O)O[C@H](CO)[C@@H](O)[C@@H]1O [Teicoplanin] + CN[C@H](CC(C)C)C(=O)N[C@H]1C(=O)N[C@@H](CC(N)=O)C(=O)N[C@H]2C(=O)N[C@H]3C(=O)N[C@H](C(=O)N[C@H](C(=O)O)c4cc(O)cc(O)c4-c4cc3ccc4O)[C@H](O)c3ccc(c(Cl)c3)Oc3cc2cc(c3O[C@@H]2O[C@H](CO)[C@@H](O)[C@H](O)[C@H]2O[C@H]2C[C@](C)(N)[C@H](O)[C@H](C)O2)Oc2ccc(cc2Cl)[C@H]1O [Vancomycin]
fitness, main component drawn
Details | first compound 0.1562 µg/mL | first compound 0.3125 µg/mL | first compound 0.625 µg/mL
S. aureus DSM 20231 [1], partner 0.1875 µg/mL | 0.979 | ≥ 1 | ≥ 1
S. aureus DSM 20231 [1], partner 0.375 µg/mL | 0.834 | ≥ 1 | 0.956
S. aureus DSM 20231 [1], partner 0.75 µg/mL | 0.932 | ≥ 1 | 0.976
S. aureus Newman [2], partner 0.1875 µg/mL | ≥ 1 | ≥ 1 | 0.914
S. aureus Newman [2], partner 0.375 µg/mL | ≥ 1 | ≥ 1 | 0.881
S. aureus Newman [2], partner 0.75 µg/mL | 0.992 | 0.949 | 0.816

fitness, S. aureus Newman [2], one replicate, main component drawn
Details | first compound 0.62 µg/mL | first compound 1.24 µg/mL | first compound 2.48 µg/mL
partner 0.1875 µg/mL | 0.814 | 0.811 | 0.418
partner 0.375 µg/mL | 0.733 | 0.757 | 0.402
partner 0.75 µg/mL | 0.734 | 0.689 | 0.148

main component drawn
Details | Bliss interaction score
B. subtilis 168 | -0.0512
S. aureus DSM 20231 [3] | -0.0576
S. aureus Newman [4] | 0.0485
S. pneumoniae D39V [5] | 0.0981

CN[C@H](CC(C)C)C(=O)N[C@H]1C(=O)N[C@@H](CC(N)=O)C(=O)N[C@H]2C(=O)N[C@H]3C(=O)N[C@H](C(=O)N[C@H](C(=O)O)c4cc(O)cc(O)c4-c4cc3ccc4O)[C@H](O)c3ccc(c(Cl)c3)Oc3cc2cc(c3O[C@@H]2O[C@H](CO)[C@@H](O)[C@H](O)[C@H]2O[C@H]2C[C@](C)(N)[C@H](O)[C@H](C)O2)Oc2ccc(cc2Cl)[C@H]1O [Vancomycin] + CC1=C\[C@@H](O)CC(=O)Cc2nc(co2)C(=O)N2CCC=C2C(=O)O[C@H](C(C)C)[C@H](C)/C=C/C(=O)NC\C=C\1 [Virginiamycin M1]
Details | fitness
S. aureus DSM 20231 [1], first compound 0.1875 µg/mL, partner 0.0625 µg/mL | ≥ 1
S. aureus DSM 20231 [1], first compound 0.1875 µg/mL, partner 0.125 µg/mL | ≥ 1
S. aureus DSM 20231 [1], first compound 0.1875 µg/mL, partner 0.25 µg/mL | 0.998
S. aureus DSM 20231 [1], first compound 0.375 µg/mL, partner 0.0625 µg/mL | ≥ 1
S. aureus DSM 20231 [1], first compound 0.375 µg/mL, partner 0.125 µg/mL | ≥ 1
S. aureus DSM 20231 [1], first compound 0.375 µg/mL, partner 0.25 µg/mL | ≥ 1
S. aureus DSM 20231 [1], first compound 0.75 µg/mL, partner 0.0625 µg/mL | ≥ 1
S. aureus DSM 20231 [1], first compound 0.75 µg/mL, partner 0.125 µg/mL | ≥ 1
S. aureus DSM 20231 [1], first compound 0.75 µg/mL, partner 0.25 µg/mL | ≥ 1
S. aureus Newman [2], first compound 0.1875 µg/mL, partner 0.0625 µg/mL | 0.991
S. aureus Newman [2], first compound 0.1875 µg/mL, partner 0.125 µg/mL | 0.994
S. aureus Newman [2], first compound 0.1875 µg/mL, partner 0.25 µg/mL | 0.99
S. aureus Newman [2], first compound 0.375 µg/mL, partner 0.0625 µg/mL | ≥ 1
S. aureus Newman [2], first compound 0.375 µg/mL, partner 0.125 µg/mL | 0.988
S. aureus Newman [2], first compound 0.375 µg/mL, partner 0.25 µg/mL | 0.977
S. aureus Newman [2], first compound 0.75 µg/mL, partner 0.0625 µg/mL | ≥ 1
S. aureus Newman [2], first compound 0.75 µg/mL, partner 0.125 µg/mL | 0.995
S. aureus Newman [2], first compound 0.75 µg/mL, partner 0.25 µg/mL | 0.962
S. pneumoniae D39V [6], first compound 0.03125 µg/mL, partner 0.5 µg/mL | ≥ 1
S. pneumoniae D39V [6], first compound 0.03125 µg/mL, partner 1 µg/mL | ≥ 1
S. pneumoniae D39V [6], first compound 0.03125 µg/mL, partner 2 µg/mL | 0.982
S. pneumoniae D39V [6], first compound 0.0625 µg/mL, partner 0.5 µg/mL | 0.982
S. pneumoniae D39V [6], first compound 0.0625 µg/mL, partner 1 µg/mL | 0.97
S. pneumoniae D39V [6], first compound 0.0625 µg/mL, partner 2 µg/mL | 0.971
S. pneumoniae D39V [6], first compound 0.125 µg/mL, partner 0.5 µg/mL | 0.988
S. pneumoniae D39V [6], first compound 0.125 µg/mL, partner 1 µg/mL | 0.939
S. pneumoniae D39V [6], first compound 0.125 µg/mL, partner 2 µg/mL | 0.945
S. pneumoniae D39V [6], first compound 0.25 µg/mL, partner 2 µg/mL | 0.881

fitness, one replicate
Details | partner 0.15 µg/mL | partner 0.3 µg/mL | partner 0.5 µg/mL | partner 1 µg/mL | partner 2 µg/mL
S. aureus DSM 20231 [1], first compound 0.1875 µg/mL | – | – | 0.766 | 0.687 | –
S. aureus DSM 20231 [1], first compound 0.375 µg/mL | – | – | 0.727 | 0.733 | –
S. aureus DSM 20231 [1], first compound 0.75 µg/mL | – | – | 0.795 | 0.791 | –
S. aureus Newman [2], first compound 0.1875 µg/mL | – | – | 0.913 | 0.98 | 0.883
S. aureus Newman [2], first compound 0.375 µg/mL | – | – | 0.887 | 0.97 | 0.861
S. aureus Newman [2], first compound 0.75 µg/mL | – | – | 0.815 | 0.93 | 0.903
S. pneumoniae D39V [6], first compound 0.125 µg/mL | ≥ 1 | ≥ 1 | – | – | –
S. pneumoniae D39V [6], first compound 0.25 µg/mL | 0.946 | 0.993 | 0.873 | 0.681 | –
S. pneumoniae D39V [6], first compound 0.5 µg/mL | 0.355 | 0.71 | 0.366 | 0.0772 | –

Details | Bliss interaction score
B. subtilis 168 | -0.0585
S. aureus DSM 20231 [3] | 0.0837
S. aureus Newman [4] | 0.0634
S. pneumoniae D39V [5] | 0.128
